Reference: US20090253634A1, “Methods and Compositions for the Treatment of Gastrointestinal Disorders” (MICROBIA, INC., priority 2005, published 2009)
Ends that are not written are not given here.

Legend:
gastrointestinal transit = test: murine gastrointestinal transit (GIT) assay, acute and chronic dosing; assay type: in vivo, mice; details: for intestinal transit rate, dose dependence: recombinantly synthesized peptides, FIG. 4a; for gastrointestinal transit rate: oral, SEQ ID NO:4 and Zelnorm 0.1 mg/kg, FIG. 3a, 3b
Method: In order to determine whether the peptides increase the rate of gastrointestinal transit, the peptides and controls were tested using a murine gastrointestinal transit (GIT) assay (Moon et al. Infection and Immunity 25:127, 1979). In this assay, charcoal, which can be readily visualized in the gastrointestinal tract is administered to mice after the administration of a test compound. The distance traveled by the charcoal is measured and expressed as a percentage of the total length of the […].
Mice were fasted with free access to water for 12 to 16 hours before the treatment with peptide or control buffer. The peptides were orally administered at 1 μg/kg-1 mg/kg of peptide in buffer ([…] pH 7.5) 7 minutes before being given an oral dose of 5% Activated Carbon (Aldrich 242276-250G). Control mice were administered buffer only before being given a dose of Activated Carbon. After 15 minutes, the mice were sacrificed and their intestines from the stomach to the cecum were dissected. The total length of the intestine as well as the distance traveled from the stomach to the charcoal front was measured for each animal and the results are expressed as the percent of the total length of the intestine traveled by the charcoal front. All results are reported as the average of 10 mice±standard deviation. A comparison of the distance traveled by the charcoal between the mice treated with peptide versus the mice treated with vehicle alone was performed using a Student's t test and a statistically significant difference was considered for P<0.05. P-values are calculated using a two-sided T-Test assuming unequal variances.
The identical experiment was performed to determine if SEQ ID NO:3 is effective in a chronic dosing treatment regimen. Briefly, 8 week old CD1 female mice are dosed orally once a day for 5 days with either SEQ ID NO:3 (0.06 mg/kg or 0.25 mg/kg in 20 mM Tris pH 7.5) or vehicle alone (20 mM Tris pH 7.5). On the 5th day, a GIT assay is performed identical to that above except 200 μl of a 10% charcoal solution is administered. […] The results are shown side by side with acute dosing (1 day).

intestinal secretion = test: suckling mouse model of intestinal secretion (SuMi assay); assay type: in vivo, suckling mice
Method: In this model a test compound is administered to suckling mice that are between 7 and 9 days old. After the mice are sacrificed, the gastrointestinal tract from the stomach to the cecum is dissected (“guts”). The remains (“carcass”) as well as the guts are weighed and the ratio of guts to carcass weight is calculated. If the ratio is above 0.09, one can conclude that the test compound increases intestinal secretion. […] The effect of Zelnorm® was also studied.

PBQ-induced writhing = test: phenylbenzoquinone (PBQ)-induced writhing model
intestinal GC-C receptor = target: T1, intestinal GC-C receptor (Homo sapiens, UniProt P25092); test: GC-C receptor activity assay (cyclic GMP) in T84 cells; assay type: cell-based; details: chemically synthesized peptides, cyclic GMP by EIA
T1 construct: monolayers of T84 cells in 24-well plates; host or cells: T84 human colon carcinoma cells
Method: The ability of SEQ ID NO:5, SEQ ID NO:4, SEQ ID NO:3, and SEQ ID NO:6 to activate the intestinal GC-C receptor was assessed in an assay employing the T84 human colon carcinoma cell line (American Type Culture Collection (Bethesda, Md.)). For the assays cells were grown to confluency in 24-well culture plates with a 1:1 mixture of Ham's F12 medium and Dulbecco's modified Eagle's medium (DMEM), supplemented with 5% fetal calf serum and were used at between passages 54 and 60.
Briefly, monolayers of T84 cells in 24-well plates were washed twice with 1 ml/well DMEM, then incubated at 37° C. for 10 min with 0.45 ml DMEM containing 1 mM isobutylmethylxanthine (IBMX), a cyclic nucleotide phosphodiesterase inhibitor, Test peptides (50 μl) were then added and incubated for 30 minutes at 37° C. The media was aspirated and the reaction was then terminated by the addition of ice cold 0.5 ml of 0.1N HCl. The samples were held on ice for 20 minutes and then evaporated to dryness using a heat gun or vacuum centrifugation.

[1] = target: T2, GC-C receptors found in rat intestinal mucosa (Rattus norvegicus, UniProt P23897); details: same assay, observed by Giannella et al.; cited from earlier work
T2 construct: Epithelial cells from the small intestine of rats were obtained; from tissue; host or cells: rat small-intestinal mucosa / epithelial cell suspension
T2 sequence (P23897 23-1072): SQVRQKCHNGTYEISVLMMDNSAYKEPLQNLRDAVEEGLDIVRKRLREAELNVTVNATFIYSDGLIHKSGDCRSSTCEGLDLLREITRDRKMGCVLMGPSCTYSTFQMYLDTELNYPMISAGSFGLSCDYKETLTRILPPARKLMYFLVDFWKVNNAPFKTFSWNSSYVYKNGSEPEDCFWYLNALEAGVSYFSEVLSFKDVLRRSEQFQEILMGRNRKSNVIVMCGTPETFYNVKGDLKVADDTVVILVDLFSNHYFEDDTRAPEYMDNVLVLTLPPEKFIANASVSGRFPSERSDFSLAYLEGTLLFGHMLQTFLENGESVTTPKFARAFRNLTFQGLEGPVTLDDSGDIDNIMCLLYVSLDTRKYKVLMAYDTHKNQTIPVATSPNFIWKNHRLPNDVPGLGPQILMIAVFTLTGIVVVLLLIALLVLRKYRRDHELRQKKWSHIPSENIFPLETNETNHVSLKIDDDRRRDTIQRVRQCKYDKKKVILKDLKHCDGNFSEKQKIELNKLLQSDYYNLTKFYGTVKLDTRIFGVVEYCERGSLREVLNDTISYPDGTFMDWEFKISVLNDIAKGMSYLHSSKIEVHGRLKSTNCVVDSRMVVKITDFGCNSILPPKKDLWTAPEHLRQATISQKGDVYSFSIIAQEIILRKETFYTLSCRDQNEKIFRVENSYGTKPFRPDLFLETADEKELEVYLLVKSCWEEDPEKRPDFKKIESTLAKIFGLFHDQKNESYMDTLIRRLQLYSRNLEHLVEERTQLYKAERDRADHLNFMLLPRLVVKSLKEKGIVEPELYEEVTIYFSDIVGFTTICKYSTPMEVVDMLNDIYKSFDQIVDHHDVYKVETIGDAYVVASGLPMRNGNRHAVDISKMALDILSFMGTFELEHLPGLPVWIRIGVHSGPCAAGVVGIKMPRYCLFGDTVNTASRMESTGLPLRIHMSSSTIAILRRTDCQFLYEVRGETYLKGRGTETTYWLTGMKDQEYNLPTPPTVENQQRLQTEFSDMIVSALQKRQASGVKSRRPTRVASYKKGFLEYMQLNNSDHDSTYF

[2] = recombinant peptides, dose response, FIG. 6a

T1 sequence (P25092 24-1073): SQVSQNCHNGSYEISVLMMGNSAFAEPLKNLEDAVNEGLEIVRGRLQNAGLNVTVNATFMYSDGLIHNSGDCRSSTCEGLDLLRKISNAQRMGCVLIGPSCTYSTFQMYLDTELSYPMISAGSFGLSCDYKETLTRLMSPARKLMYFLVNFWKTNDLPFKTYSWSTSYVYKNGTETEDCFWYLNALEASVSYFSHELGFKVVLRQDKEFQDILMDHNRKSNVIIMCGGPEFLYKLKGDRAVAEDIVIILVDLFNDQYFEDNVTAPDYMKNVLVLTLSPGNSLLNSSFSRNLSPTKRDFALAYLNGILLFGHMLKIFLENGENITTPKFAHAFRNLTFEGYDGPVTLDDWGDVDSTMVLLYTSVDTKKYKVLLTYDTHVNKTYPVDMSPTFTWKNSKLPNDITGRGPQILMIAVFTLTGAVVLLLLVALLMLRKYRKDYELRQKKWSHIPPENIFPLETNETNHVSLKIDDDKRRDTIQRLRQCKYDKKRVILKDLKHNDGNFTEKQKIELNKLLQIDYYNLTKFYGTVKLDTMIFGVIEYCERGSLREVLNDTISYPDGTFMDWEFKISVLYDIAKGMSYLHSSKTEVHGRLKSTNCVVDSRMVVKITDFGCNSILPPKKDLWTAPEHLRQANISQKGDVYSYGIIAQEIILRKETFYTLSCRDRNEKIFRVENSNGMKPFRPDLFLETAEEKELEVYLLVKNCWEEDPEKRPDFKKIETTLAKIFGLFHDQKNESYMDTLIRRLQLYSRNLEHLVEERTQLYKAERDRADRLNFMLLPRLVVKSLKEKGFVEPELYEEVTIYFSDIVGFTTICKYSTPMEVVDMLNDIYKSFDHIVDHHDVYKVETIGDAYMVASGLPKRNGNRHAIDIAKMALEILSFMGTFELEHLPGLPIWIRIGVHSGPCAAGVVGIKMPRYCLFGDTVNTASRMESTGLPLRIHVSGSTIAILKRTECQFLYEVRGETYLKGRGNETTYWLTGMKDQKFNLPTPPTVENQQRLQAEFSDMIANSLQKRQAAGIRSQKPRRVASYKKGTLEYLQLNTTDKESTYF

Row | Compound | intestinal transit rate, dose dependence (gastrointestinal transit; acute) | intestinal secretion (guts to carcass weight ratio) (intestinal secretion; [2]) | writhings versus vehicle control (PBQ-induced writhing; 1 mg/kg dose, oral) | antinociceptive effect compared with indomethacin (PBQ-induced writhing; PBQ writhing assay) | gastrointestinal transit rate (gastrointestinal transit; acute) | effect in mouse gastrointestinal motility assay upon chronic dosing (gastrointestinal transit; oral once a day for 5 days, SEQ ID NO:3 0.06 or 0.25 mg/kg, FIG. 4c) | intestinal secretion (guts to carcass weight ratio) (intestinal secretion; 0.2 mg/kg) | activity in GC-C receptor activity assay (intestinal GC-C receptor) | intestinal transit rates versus Tris buffer or equivalent dose of Zelnorm (gastrointestinal transit; acute, chemically synthesized peptides, FIG. 4b) | intestinal secretion (guts to carcass weight ratio) (intestinal secretion; dose response, wild-type ST purchased from TDT, FIG. 5a, 5b) | Kd [1] [nM]
1 | NSSNYCCEYCCNPACTGCY (cysteine pairing not given here) [SEQ ID NO:5] | increases with an increasing dosage | increase intestinal secretion | Significant reductions in writhings | antinociceptive effects in this visceral pain model comparable to the intermediate doses of indomethacin | – | – | – | – | – | – | –
2 | [H]/N=C(/NCCCCC)N/N=C/c1c[nH]c2ccc(OC)cc12 [Zelnorm®, tegaserod] | – | – | – | – | increase gastrointestinal transit rate | effective | does not increase intestinal secretion | – | – | – | –
3 | NSSNYCCELCCNPACTGCY [SEQ ID NO:4] | increases with an increasing dosage | increase intestinal secretion | – | – | increase gastrointestinal transit rate | – | – | activity comparable to SEQ ID NO:4 | increase intestinal transit rates more than either Tris buffer alone or an equivalent dose of Zelnorm® | increase intestinal secretion | ~13
